Results: the NIST ThermoML archive (doi:10.1016/j.jct.2018.01.025)
Several values for one entry are separate records, joined by “and”; a condition that tells them apart may be missing. Equal entries are not always repeated. Numbers after ± are expanded uncertainties.

Settings: Liquid; for mass density: Vibrating tube method

SMILES: CCCC[n+]1cccc(C)c1.O=S(=O)([N-]S(=O)(=O)C(F)(F)F)C(F)(F)F
- viscosity (278.15 K, 101.33 kPa, Concentric cylinders viscometry): 201 ± 4 mPa·s
- mass density (278.15 K, 101.33 kPa): 1431.3 ± 1.1 kg/m3
- viscosity (283.15 K, 101.33 kPa, Concentric cylinders viscometry): 146.3 ± 2.4 mPa·s
- mass density (283.15 K, 101.33 kPa): 1426.4 ± 1.1 kg/m3
- viscosity (288.13 K, 101.33 kPa, Vibrating wire viscometry): 107.09 ± 2.1 mPa·s
- viscosity (288.15 K, 101.33 kPa, Concentric cylinders viscometry): 109.5 ± 1.5 mPa·s
- mass density (288.15 K, 101.33 kPa): 1421.6 ± 1.1 kg/m3
- viscosity (292.95 K, 101.33 kPa, Vibrating wire viscometry): 83.24 ± 1.4 mPa·s
- viscosity (293.15 K, 101.33 kPa, Concentric cylinders viscometry): 84.1 ± 1 mPa·s
- mass density (293.15 K, 101.33 kPa): 1416.9 ± 1.1 kg/m3
- viscosity (296.3 K, 101.33 kPa, Vibrating wire viscometry): 71.15 ± 1.1 mPa·s
- viscosity (298.15 K, 101.33 kPa, Concentric cylinders viscometry): 65.6 ± 0.7 mPa·s
- mass density (298.15 K, 101.33 kPa): 1412.3 ± 1.1 kg/m3
- viscosity (298.25 K, 101.33 kPa, Vibrating wire viscometry): 65 ± 1 mPa·s and 64.91 ± 1 mPa·s
- viscosity (300.55 K, 101.33 kPa, Vibrating wire viscometry): 58.21 ± 0.89 mPa·s
- viscosity (302.98 K, 101.33 kPa, Vibrating wire viscometry): 52.92 ± 0.8 mPa·s
- viscosity (303.15 K, 101.33 kPa, Concentric cylinders viscometry): 52.31 ± 0.53 mPa·s
- mass density (303.15 K, 101.33 kPa): 1407.8 ± 1.1 kg/m3
- viscosity (303.15 K, 10000 kPa, Falling or rolling sphere viscometry): 58.6 ± 2.1 mPa·s
- viscosity (303.15 K, 15000 kPa, Falling or rolling sphere viscometry): 62.3 ± 2.2 mPa·s
- viscosity (303.15 K, 25000 kPa, Falling or rolling sphere viscometry): 70.4 ± 2.6 mPa·s
- viscosity (303.15 K, 50000 kPa, Falling or rolling sphere viscometry): 94.7 ± 3.8 mPa·s
- viscosity (303.15 K, 75000 kPa, Falling or rolling sphere viscometry): 126.3 ± 5.7 mPa·s
- viscosity (307.84 K, 101.33 kPa, Vibrating wire viscometry): 43.69 ± 0.68 mPa·s
- viscosity (308.15 K, 101.33 kPa, Concentric cylinders viscometry): 42.36 ± 0.44 mPa·s
- mass density (308.15 K, 101.33 kPa): 1403.2 ± 1.1 kg/m3
- viscosity (310.19 K, 101.33 kPa, Vibrating wire viscometry): 40.27 ± 0.62 mPa·s
- viscosity (313.15 K, 101.33 kPa, Concentric cylinders viscometry): 35.01 ± 0.37 mPa·s
- mass density (313.15 K, 101.33 kPa): 1398.7 ± 1.1 kg/m3
- viscosity (313.15 K, 10000 kPa, Falling or rolling sphere viscometry): 40.1 ± 1.4 mPa·s
- viscosity (313.15 K, 15000 kPa, Falling or rolling sphere viscometry): 42.3 ± 1.5 mPa·s
- viscosity (313.15 K, 25000 kPa, Falling or rolling sphere viscometry): 47.2 ± 1.7 mPa·s
- viscosity (313.15 K, 50000 kPa, Falling or rolling sphere viscometry): 61.7 ± 2.2 mPa·s
- viscosity (313.15 K, 75000 kPa, Falling or rolling sphere viscometry): 80.5 ± 3.1 mPa·s
- viscosity (313.15 K, 100000 kPa, Falling or rolling sphere viscometry): 104.9 ± 4.4 mPa·s
- viscosity (318.15 K, 101.33 kPa, Concentric cylinders viscometry): 29.01 ± 0.3 mPa·s
- mass density (318.15 K, 101.33 kPa): 1394.3 ± 1.1 kg/m3
- viscosity (323.15 K, 101.33 kPa, Concentric cylinders viscometry): 24.47 ± 0.26 mPa·s
- mass density (323.15 K, 101.33 kPa): 1389.8 ± 1.1 kg/m3
- viscosity (323.15 K, 10000 kPa, Falling or rolling sphere viscometry): 27.2 ± 1 mPa·s
- viscosity (323.15 K, 15000 kPa, Falling or rolling sphere viscometry): 28.7 ± 1 mPa·s
- viscosity (323.15 K, 25000 kPa, Falling or rolling sphere viscometry): 32 ± 1.2 mPa·s
- viscosity (323.15 K, 50000 kPa, Falling or rolling sphere viscometry): 41.6 ± 1.5 mPa·s
- viscosity (323.15 K, 75000 kPa, Falling or rolling sphere viscometry): 53.5 ± 1.9 mPa·s
- viscosity (323.15 K, 100000 kPa, Falling or rolling sphere viscometry): 68.5 ± 2.5 mPa·s
- viscosity (328.15 K, 101.33 kPa, Concentric cylinders viscometry): 20.87 ± 0.22 mPa·s
- mass density (328.15 K, 101.33 kPa): 1385.4 ± 1.1 kg/m3
- viscosity (333.15 K, 101.33 kPa, Concentric cylinders viscometry): 17.97 ± 0.19 mPa·s
- mass density (333.15 K, 101.33 kPa): 1380.9 ± 1.1 kg/m3
- viscosity (333.15 K, 10000 kPa, Falling or rolling sphere viscometry): 20 ± 0.7 mPa·s
- viscosity (333.15 K, 15000 kPa, Falling or rolling sphere viscometry): 20.8 ± 0.7 mPa·s
- viscosity (333.15 K, 25000 kPa, Falling or rolling sphere viscometry): 22.8 ± 0.8 mPa·s
- viscosity (333.15 K, 50000 kPa, Falling or rolling sphere viscometry): 29.2 ± 1.1 mPa·s
- viscosity (333.15 K, 75000 kPa, Falling or rolling sphere viscometry): 37.2 ± 1.3 mPa·s
- viscosity (333.15 K, 100000 kPa, Falling or rolling sphere viscometry): 46.3 ± 1.7 mPa·s
- viscosity (338.15 K, 101.33 kPa, Concentric cylinders viscometry): 15.61 ± 0.16 mPa·s
- mass density (338.15 K, 101.33 kPa): 1376.4 ± 1.1 kg/m3
- viscosity (343.15 K, 101.33 kPa, Concentric cylinders viscometry): 13.68 ± 0.14 mPa·s
- mass density (343.15 K, 101.33 kPa): 1372 ± 1.1 kg/m3
- viscosity (343.15 K, 10000 kPa, Falling or rolling sphere viscometry): 14.8 ± 0.5 mPa·s
- viscosity (343.15 K, 15000 kPa, Falling or rolling sphere viscometry): 15.7 ± 0.6 mPa·s
- viscosity (343.15 K, 25000 kPa, Falling or rolling sphere viscometry): 17.4 ± 0.6 mPa·s
- viscosity (343.15 K, 50000 kPa, Falling or rolling sphere viscometry): 21.7 ± 0.8 mPa·s
- viscosity (343.15 K, 75000 kPa, Falling or rolling sphere viscometry): 26.7 ± 1 mPa·s
- viscosity (343.15 K, 100000 kPa, Falling or rolling sphere viscometry): 33.2 ± 1.2 mPa·s
- viscosity (348.15 K, 101.33 kPa, Concentric cylinders viscometry): 12.07 ± 0.13 mPa·s
- mass density (348.15 K, 101.33 kPa): 1367.5 ± 1.1 kg/m3
- viscosity (353.15 K, 101.33 kPa, Concentric cylinders viscometry): 10.78 ± 0.11 mPa·s
- mass density (353.15 K, 101.33 kPa): 1362.9 ± 1.1 kg/m3
- viscosity (353.15 K, 10000 kPa, Falling or rolling sphere viscometry): 11.5 ± 0.4 mPa·s
- viscosity (353.15 K, 15000 kPa, Falling or rolling sphere viscometry): 12.1 ± 0.4 mPa·s
- viscosity (353.15 K, 25000 kPa, Falling or rolling sphere viscometry): 13.2 ± 0.5 mPa·s
- viscosity (353.15 K, 50000 kPa, Falling or rolling sphere viscometry): 16.4 ± 0.6 mPa·s
- viscosity (353.15 K, 75000 kPa, Falling or rolling sphere viscometry): 20.2 ± 0.7 mPa·s
- viscosity (353.15 K, 100000 kPa, Falling or rolling sphere viscometry): 24.8 ± 0.9 mPa·s
- viscosity (358.15 K, 101.33 kPa, Concentric cylinders viscometry): 9.59 ± 0.1 mPa·s
- mass density (358.15 K, 101.33 kPa): 1358.3 ± 1.1 kg/m3
- viscosity (363.15 K, 101.33 kPa, Concentric cylinders viscometry): 8.63 ± 0.09 mPa·s
- mass density (363.15 K, 101.33 kPa): 1353.9 ± 1.1 kg/m3
- viscosity (368.15 K, 101.33 kPa, Concentric cylinders viscometry): 7.8 ± 0.08 mPa·s
- mass density (368.15 K, 101.33 kPa): 1349.6 ± 1.1 kg/m3
- viscosity (373.15 K, 101.33 kPa, Concentric cylinders viscometry): 7.09 ± 0.08 mPa·s
- mass density (373.15 K, 101.33 kPa): 1345.4 ± 1.1 kg/m3
